Measured values: patent US11801256B2, “Antidepressant-psilocybin co-treatment to assist psychotherapy” (Universitätsspital Basel, priority 2021, dated 2023)

Key:
BDNF = assay: Plasma BDNF levels (ELISA); format: in vivo, human; conditions: escitalopram 14 days pretreatment vs placebo
Description: Psychedelics can induce neuroregeneration (Ly et al., 2018). Plasma BDNF levels are a possible biomarker for neurogenesis (Haile et al., 2014). Psychedelics increase BDNF (Holze et al., 2021; Hutten et al., 2020) and higher BDNF levels were associated with lower depression ratings after administration of psychedelics (de Almeida et al., 2019). Plasma BDNF levels were measured at baseline and 4 and 7 hours after drug administration using the Biosensis Mature BDNF Rapid ELISA Kit (Thebarton, Australia) (Akimoto et al., 2019).

2D6 = 2D6 (Homo sapiens, UniProt P10635); conditions: FDA, 2017; Swissmedic, 2020; cited from earlier work
Chain of 2D6 (P10635 whole entry): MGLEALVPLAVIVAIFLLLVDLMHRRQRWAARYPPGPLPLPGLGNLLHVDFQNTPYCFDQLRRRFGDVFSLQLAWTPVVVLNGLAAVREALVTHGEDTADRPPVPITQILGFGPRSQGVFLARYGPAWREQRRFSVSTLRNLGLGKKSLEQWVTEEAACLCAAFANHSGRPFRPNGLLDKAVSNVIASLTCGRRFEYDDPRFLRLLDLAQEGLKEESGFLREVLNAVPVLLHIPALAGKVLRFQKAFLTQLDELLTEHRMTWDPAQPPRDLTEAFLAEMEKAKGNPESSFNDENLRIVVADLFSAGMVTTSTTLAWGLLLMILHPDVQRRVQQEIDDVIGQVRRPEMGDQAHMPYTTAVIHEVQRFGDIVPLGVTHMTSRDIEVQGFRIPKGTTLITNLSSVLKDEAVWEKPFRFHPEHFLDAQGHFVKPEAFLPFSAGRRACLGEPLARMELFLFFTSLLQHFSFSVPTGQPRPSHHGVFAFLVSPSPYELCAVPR

healthy subjects [1] = assay: Mystical Experience Questionnaire (MEQ30, MEQ43); format: in vivo, human; conditions: escitalopram 14 days pretreatment vs placebo; P=0.001
Description: (§1) Treatment order was random and counterbalanced.
Mystical experiences were assessed using the German version (Liechti et al., 2017) of the 100-item States of Consciousness Questionnaire (SOCQ) (Griffiths et al., 2006) that includes the 43-item and newer 30-item MEQ (MEQ43 (Griffiths et al., 2006) and MEQ30 (Barrett et al., 2015)). The scale was be administered once at the end of each test session.

healthy subjects [2] = assay: 5 Dimensions of Altered States of Consciousness Scale (5D-ASC); format: in vivo, human; conditions: escitalopram 14 days pretreatment vs placebo
Description: as §1
5-Dimensional Altered States of Consciousness (5D-ASC): The 5-dimensional Altered States of Consciousness (5D-ASC) Scale is a visual analog scale consisting of 94 items (Dittrich, 1998; Studerus et al., 2010). The instrument contains five main scales (FIG. 17) and 11 newer subscales (FIG. 18) assessing mood, anxiety, derealization, depersonalization, changes in perception, auditory alterations, and reduced vigilance. The scale is well-validated (Studerus et al., 2010). The total ASC score is the sum of the three main dimensions/scales Oceanic Boundlessness (OB), Anxious Ego Dissolution (AED) and Visionary Restructuralization (VR). There are two additional main scales measuring Auditory Alterations (AA) and Vigilance Reduction (VIR) (FIG. 17). The 5D-ASC scale was administered once at the end of the session and subjects were instructed to retrospectively rate peak alterations that have been experienced during the study session. Each item of the scale is scored on a 0-100 mm VAS. The attribution of the individual items to the subscales of the 5D-ASC was analyzed according to (Dittrich, 1998; Studerus et al., 2010) and as shown in FIG. 18. The scale was be administered once at the end of each test session.

CYP2C19 = CYP2C19 (Homo sapiens, UniProt P33261); conditions: FDA, 2017; Swissmedic, 2020; cited from earlier work
Chain of CYP2C19 (P33261 whole entry): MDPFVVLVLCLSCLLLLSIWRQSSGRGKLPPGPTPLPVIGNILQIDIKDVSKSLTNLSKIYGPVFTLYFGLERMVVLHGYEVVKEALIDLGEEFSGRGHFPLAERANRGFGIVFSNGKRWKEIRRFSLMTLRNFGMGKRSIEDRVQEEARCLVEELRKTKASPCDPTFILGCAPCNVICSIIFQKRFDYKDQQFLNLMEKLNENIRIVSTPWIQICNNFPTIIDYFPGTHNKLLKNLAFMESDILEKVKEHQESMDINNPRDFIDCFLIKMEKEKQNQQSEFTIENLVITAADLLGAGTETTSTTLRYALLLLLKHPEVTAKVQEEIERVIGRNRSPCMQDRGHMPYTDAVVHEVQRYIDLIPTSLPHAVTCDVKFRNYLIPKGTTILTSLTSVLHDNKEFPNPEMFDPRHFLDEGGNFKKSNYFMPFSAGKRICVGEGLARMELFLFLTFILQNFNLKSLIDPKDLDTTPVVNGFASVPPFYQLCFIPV

healthy subjects [3] = assay: Adjective Mood Rating Scale (AMRS); format: in vivo, human; conditions: escitalopram 14 days pretreatment vs placebo; P=0.007
Description: as §1
The 60-item Adjective Mood Rating Scale (AMRS) (Janke & Debus, 1978) was administered before and 2, 3, 5, and 7 hours after psilocybin administration.
The criterion for significance was p<0.05.

healthy subjects [4] = assay: Adverse effects (list of complaints) and adverse events; format: in vivo, human
Description: as §1
Adverse effects (list of complaints): The list of complaints (LC) consists of 66 items offering a global score measuring physical and general discomfort (Zerssen, 1976). This scale yields a total adverse effects score and reliably measures physical and general discomfort. The LC list was administered 7 hours after administration of the drug with reference to complaints throughout the entire session.

healthy subjects [5] = assay: QTc time; format: in vivo, human; conditions: escitalopram pretreatment compared with placebo
Description: Exclusion criteria: Chronic or acute medical condition, including a history of seizures. Current or previous major psychiatric disorder (e.g. psychotic disorders, mania/hypomania, anxiety disorders, and substance abuse). Psychotic disorder in first-degree relatives, not including psychotic disorders secondary to an apparent medical reason, e.g. brain injury, dementia, or lesions of the brain. Illicit substance use (with the exception of cannabis) more than 10 times or any time within the previous two months. History of an angle closure glaucoma. Pregnant or nursing women. Participation in another clinical trial (currently or within the last 30 days). […] A corrected QT time (QTc), calculated by Bazett's formula, of over 450 milliseconds in males and over 470 milliseconds in females. Tobacco smoking (>10 cigarettes/day). Consumption of alcoholic drinks (>10 drinks/week). Bodyweight <45 kg.

[6] = any time during escitalopram pretreatment

CN(C)CCC[C@@]1(c2ccc(F)cc2)OCc2cc(C#N)ccc21 [Escitalopram, escitalopram]
effect on the psilocybin-induced moderate increase in BDNF (BDNF): did not significantly alter | inhibition of 2D6 function (2D6): slightly inhibits | effect on psilocybin-induced nadir effects in the MEQ43 (healthy subjects [1]): significantly reduced | effect on psilocybin-induced anxiety in the 5D-ASC (healthy subjects [2]; P=0.026): significantly reduced | effect on psilocybin-induced anxious ego dissolution in the 5D-ASC (healthy subjects [2]; P=0.029): significantly reduced | inhibition of CYP2C19 function (CYP2C19): slightly inhibits | effect on psilocybin-induced anxiety in the AMRS (healthy subjects [3]): significantly reduced | adverse events during pretreatment: bruxism (healthy subjects [4]; [6]): 2 subjects | adverse events during pretreatment: decreased libido (healthy subjects [4]; [6]): 5 subjects | adverse events during pretreatment: diarrhea (healthy subjects [4]; [6]): 2 subjects | adverse events during pretreatment: difficulty concentrating (healthy subjects [4]; [6]): 1 subjects | adverse events during pretreatment: dizziness (healthy subjects [4]; [6]): 2 subjects | adverse events during pretreatment: dysorgasmia (healthy subjects [4]; [6]): 2 subjects | adverse events during pretreatment: feeling depressed (healthy subjects [4]; [6]): 3 subjects | adverse events during pretreatment: headache (healthy subjects [4]; [6]): 6 subjects | adverse events during pretreatment: increased appetite (healthy subjects [4]; [6]): 2 subjects | adverse events during pretreatment: insomnia (healthy subjects [4]; [6]): 2 subjects | adverse events during pretreatment: loss of appetite (healthy subjects [4]; [6]): 3 subjects | adverse events during pretreatment: nausea (healthy subjects [4]; [6]): eight | adverse events during pretreatment: restless legs (healthy subjects [4]; [6]): 2 subjects | adverse events during pretreatment: tiredness (healthy subjects [4]; [6]): 6 subjects | adverse events during pretreatment: visual disturbance (healthy subjects [4]; [6]): 1 subjects | effect on other adverse effects of psilocybin (healthy subjects [4]; escitalopram pretreatment compared with placebo pretreatment (summary)): significantly reduced | severe adverse event (symptomatic vertebral disc hernia) (healthy subjects [4]; participant on escitalopram pretreatment, five days, prior to psilocybin): one | QTc time before or after psilocybin administration (healthy subjects [5]): did not alter
